# Measurements as given in ChEMBL document CHEMBL1909046, “DrugMatrix in vitro pharmacology data”.
# Target: T1, Alpha-2C adrenergic receptor (Homo sapiens, UniProt P18825)
# T1 sequence (P18825 whole entry): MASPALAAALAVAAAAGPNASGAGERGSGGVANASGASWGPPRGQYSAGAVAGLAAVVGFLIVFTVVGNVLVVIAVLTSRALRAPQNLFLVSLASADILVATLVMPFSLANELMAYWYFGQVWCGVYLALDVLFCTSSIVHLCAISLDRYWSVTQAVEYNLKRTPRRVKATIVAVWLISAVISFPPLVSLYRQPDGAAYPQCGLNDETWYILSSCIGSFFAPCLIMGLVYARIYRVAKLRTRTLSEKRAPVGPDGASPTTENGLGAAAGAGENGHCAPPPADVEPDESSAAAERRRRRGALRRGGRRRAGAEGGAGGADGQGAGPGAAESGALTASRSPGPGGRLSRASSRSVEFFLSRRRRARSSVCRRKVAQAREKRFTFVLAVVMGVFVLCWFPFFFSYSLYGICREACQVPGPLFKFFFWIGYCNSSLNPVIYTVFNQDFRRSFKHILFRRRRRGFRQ
# Assay: DRUGMATRIX: Adrenergic Alpha-2C radioligand binding (ligand: [3H] MK-912)
# Assay type: cell membranes, Sf9, Membrane
# Conditions: read-out: IC50
row,SMILES,IC50 [nM]
1,Oc1c(Cl)cc(Cl)cc1Sc1cc(Cl)cc(Cl)c1O [BITHIONOL],4390

# Same assay, conditions: read-out: Ki
row,SMILES,Ki [nM]
1,Oc1c(Cl)cc(Cl)cc1Sc1cc(Cl)cc(Cl)c1O [BITHIONOL],638

# Same assay, conditions: sf9
row,SMILES,IC50
1,Cc1ccccc1N1CCN(CCc2nnc3n2CCCC3)CC1 [DAPIPRAZOLE],Not Active
2,O=C1OC2(c3ccc(O)cc3Oc3cc(O)ccc32)c2ccccc21 [FLUORESCEIN],Not Active

# Target: Beta-2 adrenergic receptor (Homo sapiens, UniProt P07550)
# Sequence (P07550 whole entry): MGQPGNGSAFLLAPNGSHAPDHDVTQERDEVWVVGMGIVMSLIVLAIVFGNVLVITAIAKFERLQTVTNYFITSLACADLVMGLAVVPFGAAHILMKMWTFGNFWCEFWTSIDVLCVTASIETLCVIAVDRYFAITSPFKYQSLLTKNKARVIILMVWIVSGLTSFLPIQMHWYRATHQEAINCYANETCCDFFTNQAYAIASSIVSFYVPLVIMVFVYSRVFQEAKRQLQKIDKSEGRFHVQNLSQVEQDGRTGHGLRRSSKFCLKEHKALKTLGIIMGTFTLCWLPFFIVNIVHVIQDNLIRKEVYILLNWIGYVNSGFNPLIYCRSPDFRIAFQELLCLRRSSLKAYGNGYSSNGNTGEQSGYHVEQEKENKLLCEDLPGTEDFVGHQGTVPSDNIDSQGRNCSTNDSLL
# Assay: DRUGMATRIX: Adrenergic beta2 radioligand binding (ligand: [3H] CGP-12177)
# Assay type: cell membranes, Membrane
# Conditions: cho; Not Active = under 50% inhibition at 10 µM
row,SMILES,IC50
1,Cc1ccccc1N1CCN(CCc2nnc3n2CCCC3)CC1 [DAPIPRAZOLE],Not Active
2,Oc1c(Cl)cc(Cl)cc1Sc1cc(Cl)cc(Cl)c1O [BITHIONOL],Not Active
3,O=C1OC2(c3ccc(O)cc3Oc3cc(O)ccc32)c2ccccc21 [FLUORESCEIN],Not Active

# Target: Sodium-dependent noradrenaline transporter (Homo sapiens, UniProt P23975)
# Sequence (P23975 whole entry): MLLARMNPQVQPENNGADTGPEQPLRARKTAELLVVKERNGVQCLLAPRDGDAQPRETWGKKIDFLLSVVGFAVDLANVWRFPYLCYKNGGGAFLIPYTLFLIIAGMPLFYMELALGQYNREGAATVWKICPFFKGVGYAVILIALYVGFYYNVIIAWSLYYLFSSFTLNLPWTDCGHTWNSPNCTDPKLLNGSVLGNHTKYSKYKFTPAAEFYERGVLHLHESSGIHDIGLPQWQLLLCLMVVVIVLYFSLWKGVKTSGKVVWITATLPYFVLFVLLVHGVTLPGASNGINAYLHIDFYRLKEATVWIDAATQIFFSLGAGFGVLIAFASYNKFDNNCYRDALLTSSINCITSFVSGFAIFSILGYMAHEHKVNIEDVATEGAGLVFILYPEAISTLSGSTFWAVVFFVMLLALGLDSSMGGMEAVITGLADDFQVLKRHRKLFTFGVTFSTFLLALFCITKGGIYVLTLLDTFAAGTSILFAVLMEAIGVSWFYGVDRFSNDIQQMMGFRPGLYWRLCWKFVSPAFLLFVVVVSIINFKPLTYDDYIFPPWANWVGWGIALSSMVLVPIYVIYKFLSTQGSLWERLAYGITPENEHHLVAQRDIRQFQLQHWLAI
# Assay: DRUGMATRIX: Norepinephrine Transporter radioligand binding (ligand: [125I] RTI-55)
# Assay type: cell membranes, MDCK, Membrane
# Conditions: Not Active = under 50% inhibition at 10 µM; read-out: IC50
row,SMILES,IC50 [nM]
1,Oc1c(Cl)cc(Cl)cc1Sc1cc(Cl)cc(Cl)c1O [BITHIONOL],1240

# Same assay, conditions: Not Active = under 50% inhibition at 10 µM; read-out: Ki
row,SMILES,Ki [nM]
1,Oc1c(Cl)cc(Cl)cc1Sc1cc(Cl)cc(Cl)c1O [BITHIONOL],1230

# Same assay, conditions: mdck; Not Active = under 50% inhibition at 10 µM
row,SMILES,IC50
1,Cc1ccccc1N1CCN(CCc2nnc3n2CCCC3)CC1 [DAPIPRAZOLE],Not Active
2,O=C1OC2(c3ccc(O)cc3Oc3cc(O)ccc32)c2ccccc21 [FLUORESCEIN],Not Active

# Test system: not listed separately
# Assay: DRUGMATRIX: Atrial Natriuretic Factor (ANF) radioligand binding (ligand: [125I] ANF (rat))
# Assay type: cell membranes, Cavia porcellus, Dunkin-Hartley, Adrenal gland, Membrane
# Conditions: Not Active = under 50% inhibition at 10 µM
SMILES,IC50,Ki
Cc1ccccc1N1CCN(CCc2nnc3n2CCCC3)CC1 [DAPIPRAZOLE],Not Active,Not Active
Oc1c(Cl)cc(Cl)cc1Sc1cc(Cl)cc(Cl)c1O [BITHIONOL],Not Active,Not Active
O=C1OC2(c3ccc(O)cc3Oc3cc(O)ccc32)c2ccccc21 [FLUORESCEIN],Not Active,Not Active

# Test system: not listed separately
# Assay: DRUGMATRIX: Calcium Channel Type L, Dihydropyridine radioligand binding (ligand: [3H] Nitrendipine)
# Assay type: cell membranes, Rattus norvegicus, Wistar, Cerebral cortex, Membrane
# Conditions: Not Active = under 50% inhibition at 10 µM
SMILES,IC50,Ki
Cc1ccccc1N1CCN(CCc2nnc3n2CCCC3)CC1 [DAPIPRAZOLE],Not Active,Not Active
Oc1c(Cl)cc(Cl)cc1Sc1cc(Cl)cc(Cl)c1O [BITHIONOL],Not Active,Not Active
O=C1OC2(c3ccc(O)cc3Oc3cc(O)ccc32)c2ccccc21 [FLUORESCEIN],Not Active,Not Active

# Target: Cannabinoid receptor 1 (Homo sapiens, UniProt P21554); note: in other assays of this panel Not Active means under 50% inhibition at 10 µM
# Sequence (P21554 whole entry): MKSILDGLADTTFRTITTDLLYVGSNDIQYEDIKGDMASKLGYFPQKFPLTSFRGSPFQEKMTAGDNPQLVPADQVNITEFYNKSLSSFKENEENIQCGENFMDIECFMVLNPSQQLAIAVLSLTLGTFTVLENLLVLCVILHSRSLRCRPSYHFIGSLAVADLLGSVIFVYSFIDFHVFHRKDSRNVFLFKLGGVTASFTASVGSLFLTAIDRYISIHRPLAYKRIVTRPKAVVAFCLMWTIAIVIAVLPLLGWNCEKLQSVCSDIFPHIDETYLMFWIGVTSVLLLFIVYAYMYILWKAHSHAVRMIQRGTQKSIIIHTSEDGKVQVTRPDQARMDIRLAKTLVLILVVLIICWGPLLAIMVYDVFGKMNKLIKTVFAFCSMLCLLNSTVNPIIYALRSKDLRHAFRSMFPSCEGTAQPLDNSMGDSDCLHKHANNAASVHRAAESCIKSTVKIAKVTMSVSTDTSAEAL
# Assay type: cell membranes, Membrane
# Conditions: chem-1
row,SMILES,IC50
1,Cc1ccccc1N1CCN(CCc2nnc3n2CCCC3)CC1 [DAPIPRAZOLE],Not Active
2,Oc1c(Cl)cc(Cl)cc1Sc1cc(Cl)cc(Cl)c1O [BITHIONOL],Not Active
3,O=C1OC2(c3ccc(O)cc3Oc3cc(O)ccc32)c2ccccc21 [FLUORESCEIN],Not Active

# Target: T2, Endothelin-1 receptor (Homo sapiens, UniProt P25101); note: in other assays of this panel Not Active means under 50% inhibition at 10 µM
# T2 sequence (P25101 whole entry): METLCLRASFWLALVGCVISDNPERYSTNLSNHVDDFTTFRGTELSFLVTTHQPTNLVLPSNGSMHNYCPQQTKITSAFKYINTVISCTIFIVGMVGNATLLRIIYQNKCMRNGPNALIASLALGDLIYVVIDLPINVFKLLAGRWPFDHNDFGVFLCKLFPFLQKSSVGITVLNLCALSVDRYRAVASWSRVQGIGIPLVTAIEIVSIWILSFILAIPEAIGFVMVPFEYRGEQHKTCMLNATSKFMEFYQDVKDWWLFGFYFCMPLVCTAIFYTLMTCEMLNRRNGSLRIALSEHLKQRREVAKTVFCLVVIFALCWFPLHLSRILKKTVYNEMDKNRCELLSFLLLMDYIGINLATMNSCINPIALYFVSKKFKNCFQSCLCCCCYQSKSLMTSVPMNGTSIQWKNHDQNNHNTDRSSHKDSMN
# Assay type: cell membranes, Membrane
# Conditions: cho-k1
row,SMILES,IC50
1,Cc1ccccc1N1CCN(CCc2nnc3n2CCCC3)CC1 [DAPIPRAZOLE],Not Active
2,Oc1c(Cl)cc(Cl)cc1Sc1cc(Cl)cc(Cl)c1O [BITHIONOL],Not Active
3,O=C1OC2(c3ccc(O)cc3Oc3cc(O)ccc32)c2ccccc21 [FLUORESCEIN],Not Active

# Test system: not listed separately
# Assay: DRUGMATRIX: GABAA, Flunitrazepam, Central radioligand binding (ligand: [3H] Flunitrazepam)
# Assay type: cell membranes, Rattus norvegicus, Wistar, Brain, Membrane
# Conditions: Not Active = under 50% inhibition at 10 µM
SMILES,IC50,Ki
Cc1ccccc1N1CCN(CCc2nnc3n2CCCC3)CC1 [DAPIPRAZOLE],Not Active,Not Active
Oc1c(Cl)cc(Cl)cc1Sc1cc(Cl)cc(Cl)c1O [BITHIONOL],Not Active,Not Active
O=C1OC2(c3ccc(O)cc3Oc3cc(O)ccc32)c2ccccc21 [FLUORESCEIN],Not Active,Not Active

# Target: T3, Muscarinic acetylcholine receptor M2 (Homo sapiens, UniProt P08172); note: in other assays of this panel Not Active means under 50% inhibition at 10 µM
# T3 sequence (P08172 whole entry): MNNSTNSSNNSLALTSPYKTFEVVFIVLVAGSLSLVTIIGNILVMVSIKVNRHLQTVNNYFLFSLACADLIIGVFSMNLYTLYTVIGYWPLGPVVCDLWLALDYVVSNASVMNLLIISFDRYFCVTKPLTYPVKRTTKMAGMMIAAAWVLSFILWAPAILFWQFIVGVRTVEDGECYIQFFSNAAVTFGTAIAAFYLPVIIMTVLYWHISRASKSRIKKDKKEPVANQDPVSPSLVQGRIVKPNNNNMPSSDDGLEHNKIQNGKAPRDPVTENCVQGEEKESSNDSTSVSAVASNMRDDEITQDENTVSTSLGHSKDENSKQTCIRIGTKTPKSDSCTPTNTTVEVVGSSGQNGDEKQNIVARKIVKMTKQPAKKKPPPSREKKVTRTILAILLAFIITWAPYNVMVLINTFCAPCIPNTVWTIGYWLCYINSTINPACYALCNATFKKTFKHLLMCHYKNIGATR
# Assay type: cell membranes, CHO-K1, Membrane
# Conditions: cho-k1
row,SMILES,IC50
1,Cc1ccccc1N1CCN(CCc2nnc3n2CCCC3)CC1 [DAPIPRAZOLE],Not Active
2,Oc1c(Cl)cc(Cl)cc1Sc1cc(Cl)cc(Cl)c1O [BITHIONOL],Not Active
3,O=C1OC2(c3ccc(O)cc3Oc3cc(O)ccc32)c2ccccc21 [FLUORESCEIN],Not Active

# Target: Kappa-type opioid receptor (Homo sapiens, UniProt P41145)
# Sequence (P41145 whole entry): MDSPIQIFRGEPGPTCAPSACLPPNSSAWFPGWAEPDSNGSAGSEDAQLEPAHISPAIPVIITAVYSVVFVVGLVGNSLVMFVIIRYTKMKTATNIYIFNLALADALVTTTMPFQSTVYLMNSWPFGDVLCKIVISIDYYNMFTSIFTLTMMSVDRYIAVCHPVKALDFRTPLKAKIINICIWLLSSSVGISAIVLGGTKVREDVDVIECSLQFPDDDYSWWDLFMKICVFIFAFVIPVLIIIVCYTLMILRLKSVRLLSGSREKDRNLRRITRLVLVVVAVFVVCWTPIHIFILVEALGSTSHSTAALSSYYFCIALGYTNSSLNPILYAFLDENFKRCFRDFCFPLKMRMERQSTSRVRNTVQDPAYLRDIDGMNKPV
# Assay: DRUGMATRIX: Opiate kappa (OP2, KOP) radioligand binding (ligand: [3H] Diprenorphine)
# Assay type: cell membranes, HEK293, Membrane
# Conditions: hek293; Not Active = under 50% inhibition at 10 µM
row,SMILES,IC50
1,Cc1ccccc1N1CCN(CCc2nnc3n2CCCC3)CC1 [DAPIPRAZOLE],Not Active
2,Oc1c(Cl)cc(Cl)cc1Sc1cc(Cl)cc(Cl)c1O [BITHIONOL],Not Active
3,O=C1OC2(c3ccc(O)cc3Oc3cc(O)ccc32)c2ccccc21 [FLUORESCEIN],Not Active

# Test system: not listed separately
# Assay: DRUGMATRIX: Phosphodiesterase PDE3 enzyme inhibition (substrate: [3H]cAMP + cAMP)
# Assay type: tissue-based, Homo sapiens
# Conditions: platelet; Not Active = under 50% inhibition at 10 µM
SMILES,IC50,Ki
Cc1ccccc1N1CCN(CCc2nnc3n2CCCC3)CC1 [DAPIPRAZOLE],Not Active,Not Active
O=C1OC2(c3ccc(O)cc3Oc3cc(O)ccc32)c2ccccc21 [FLUORESCEIN],Not Active,Not Active

# Same assay, conditions: platelet; Not Active = under 50% inhibition at 10 µM; read-out: IC50
row,SMILES,IC50 [nM]
1,Oc1c(Cl)cc(Cl)cc1Sc1cc(Cl)cc(Cl)c1O [BITHIONOL],2720

# Target: Protein phosphatase 3 catalytic subunit alpha (Homo sapiens, UniProt Q08209);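 note: inhibition of calcineurin (PP2B) enzyme activity, measured with DiFMUP as the substrate; in other assays of this panel Not Active means under 50% inhibition at 10 µM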
# Set-up: species or system Escherichia coli
# Conditions: not given
row,SMILES,IC50
1,Cc1ccccc1N1CCN(CCc2nnc3n2CCCC3)CC1 [DAPIPRAZOLE],Not Active
2,Oc1c(Cl)cc(Cl)cc1Sc1cc(Cl)cc(Cl)c1O [BITHIONOL],Not Active
3,O=C1OC2(c3ccc(O)cc3Oc3cc(O)ccc32)c2ccccc21 [FLUORESCEIN],Not Active

# Target: T4, 5-hydroxytryptamine receptor 1A (Rattus norvegicus, UniProt P19327); note: in other assays of this panel Not Active means under 50% inhibition at 10 µM
# T4 sequence (P19327 whole entry): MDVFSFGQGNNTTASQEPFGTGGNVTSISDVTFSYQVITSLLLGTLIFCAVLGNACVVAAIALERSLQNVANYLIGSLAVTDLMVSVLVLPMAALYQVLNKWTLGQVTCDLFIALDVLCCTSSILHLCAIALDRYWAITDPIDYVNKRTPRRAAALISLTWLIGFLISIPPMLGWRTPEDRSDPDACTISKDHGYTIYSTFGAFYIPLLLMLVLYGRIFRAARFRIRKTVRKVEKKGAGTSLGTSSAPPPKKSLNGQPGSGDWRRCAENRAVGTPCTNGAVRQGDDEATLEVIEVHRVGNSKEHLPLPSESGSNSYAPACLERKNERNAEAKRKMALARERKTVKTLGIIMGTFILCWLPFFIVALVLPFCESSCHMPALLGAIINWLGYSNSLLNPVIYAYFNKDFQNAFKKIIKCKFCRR
# Assay type: cell membranes, CHO-K1, Membrane
# Conditions: cho-k1
row,SMILES,IC50
1,O=C1OC2(c3ccc(O)cc3Oc3cc(O)ccc32)c2ccccc21 [FLUORESCEIN],Not Active

# Same assay, conditions: read-out: IC50
row,SMILES,IC50 [nM]
1,Cc1ccccc1N1CCN(CCc2nnc3n2CCCC3)CC1 [DAPIPRAZOLE],2060
2,Oc1c(Cl)cc(Cl)cc1Sc1cc(Cl)cc(Cl)c1O [BITHIONOL],5510

# Same assay, conditions: read-out: Ki
row,SMILES,Ki [nM]
1,Cc1ccccc1N1CCN(CCc2nnc3n2CCCC3)CC1 [DAPIPRAZOLE],1180
2,Oc1c(Cl)cc(Cl)cc1Sc1cc(Cl)cc(Cl)c1O [BITHIONOL],3150

# Target: Cytochrome P450 2C9 (Homo sapiens, UniProt P11712); note: in other assays of this panel Not Active means under 50% inhibition at 10 µM
# Sequence (P11712 whole entry): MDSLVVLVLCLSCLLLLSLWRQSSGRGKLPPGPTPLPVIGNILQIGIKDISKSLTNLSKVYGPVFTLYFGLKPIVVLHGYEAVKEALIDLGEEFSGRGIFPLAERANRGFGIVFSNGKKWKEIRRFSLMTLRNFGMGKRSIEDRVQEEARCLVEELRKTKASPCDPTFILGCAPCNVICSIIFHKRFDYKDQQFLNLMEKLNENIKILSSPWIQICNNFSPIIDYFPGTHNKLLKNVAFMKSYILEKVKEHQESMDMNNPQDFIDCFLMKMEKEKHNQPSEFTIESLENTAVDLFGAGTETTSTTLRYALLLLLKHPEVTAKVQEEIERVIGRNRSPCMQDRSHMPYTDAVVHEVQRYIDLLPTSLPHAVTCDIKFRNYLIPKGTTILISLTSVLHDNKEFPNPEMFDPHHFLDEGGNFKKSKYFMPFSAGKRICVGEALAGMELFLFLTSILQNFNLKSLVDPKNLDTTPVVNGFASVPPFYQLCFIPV
# Conditions: bti-tn-5b1-4
SMILES,IC50,Ki
Cc1ccccc1N1CCN(CCc2nnc3n2CCCC3)CC1 [DAPIPRAZOLE],Not Active,Not Active
Oc1c(Cl)cc(Cl)cc1Sc1cc(Cl)cc(Cl)c1O [BITHIONOL],Not Active,Not Active
O=C1OC2(c3ccc(O)cc3Oc3cc(O)ccc32)c2ccccc21 [FLUORESCEIN],Not Active,Not Active
